Results as given in patent publication US8178506B2, “Oligomeric compounds and compositions for use in modulation of small non-coding RNAs” (Regulus Therapeutics Inc., priority 2003, dated 2012).
Several values for one entry are separate records, joined by “and”; a condition that tells them apart may be missing. Equal entries are not always repeated. In the oligonucleotide strings, read from the 5' end, every base follows the letter of its sugar. An asterisk marks phosphorothioate; unmarked linkages are phosphodiester. Other units and linkages are bracketed, terminal groups are in braces. A string of capitals states the bases alone. e = 2'-O-(2-methoxyethyl) (MOE); [5mC] = 5-methylcytosine; d = 2'-deoxy (DNA)

Experiments:
T47D cells = test: Caspase-3 activity assay (apoptosis) in T47D cells; conditions: for Fold Increase over UTC (caspase-3 activity, apoptosis): 200 nM oligomeric compound; for Fold Increase over UTC (caspase-3 activity, apoptosis) / Fold Increase over UTC (caspase activity): 48 hours; for Fold Increase over UTC (caspase activity) / apoptosis in T47D cells: 200 nM; for Fold Increase over UTC (caspase activity): relative to untreated control; for apoptosis in T47D cells: caspase assay, conclusion from Tables 9-12
HeLa cells = test: Cell cycle assay in HeLa cells; type: cell-based, human; conditions: for % cells aneuploid / % cells in cell cycle phase G1 / % cells in cell cycle phase G2/M / % cells in cell cycle phase S / % cells in cell cycle phase subG1 / % cells in cell cycle phase: G1 / % cells in cell cycle phase: G2/M / % cells in cell cycle phase: S / % cells in cell cycle phase: aneuploid / % cells in cell cycle phase: subG1: HeLa cells; for % cells aneuploid / % cells in cell cycle phase G1 / % cells in cell cycle phase G2/M / % cells in cell cycle phase S / % cells in cell cycle phase subG1: relative to untreated control (UTC = 100); for phase of the cell cycle in which cells arrest or delay: HeLa
adipocytes = test: Triglyceride accumulation assay in adipocytes; type: cell-based, human; conditions: preadipocytes, 250 nM, day nine
[1] = T47D cells, experiment of Table 11
[2] = 150 nM oligomeric compound, 24 hours
[3] = 150 nM oligomeric compound, 48 hours after treatment, relative to untreated control (UTC=100)
[4] = 25 nM, 48 hours, percentage of cells in phase, average of replicates
[5] = 50 nM, 48 hours, percentage of cells in phase, average of replicates
[6] = 100 nM, 48 hours, percentage of cells in phase, average of replicates
[7] = 150 nM, 48 hours, percentage of cells in phase, average of replicates

With “328374 (eA*eG*e[5mC]*eT*eT*dT*dA*dG*d[5mC]*dT*dG*dG*dG*dT*d[5mC]*eA*eG*eG*eA*e[5mC]; antisense) [compound 328374]” the “Fold Increase over UTC (caspase-3 activity, apoptosis)” value (T47D cells; [1]) was 1.1 fold, the “% cells aneuploid” value (HeLa cells; [2]) was 97% and the “% cells in cell cycle phase G1” value (HeLa cells; [2]) was 54%. The “% cells in cell cycle phase G2/M” value (HeLa cells; [2]) was 162%, the “% cells in cell cycle phase S” value (HeLa cells; [2]) was 115% and the “% cells in cell cycle phase subG1” value (HeLa cells; [2]) was 198%. The “% cells in cell cycle phase: G1” value (HeLa cells; [3]) was 65%, the “% cells in cell cycle phase: G2/M” value (HeLa cells; [3]) was 143% and the “% cells in cell cycle phase: S” value (HeLa cells; [3]) was 157%. The “% cells in cell cycle phase: aneuploid” value (HeLa cells; [3]) was 71% and the “% cells in cell cycle phase: subG1” value (HeLa cells; [3]) was 787%.

For “328647 (eG*eG*eA*eG*eT*dA*dG*dA*dT*dG*dA*dT*dG*dG*dT*eT*eA*eG*e[5mC]*e[5mC]; antisense) [compound 328647]”, the “Fold Increase over UTC (caspase activity)” value (T47D cells; T47D cells) was 0.9, the “% cells aneuploid” value (HeLa cells; [2]) was 140% and the “% cells in cell cycle phase G1” value (HeLa cells; [2]) was 101%. The “% cells in cell cycle phase G2/M” value (HeLa cells; [2]) was 119%, the “% cells in cell cycle phase S” value (HeLa cells; [2]) was 92% and the “% cells in cell cycle phase subG1” value (HeLa cells; [2]) was 140%. The “% cells in cell cycle phase: G1” value (HeLa cells; [3]) was 69%, the “% cells in cell cycle phase: G2/M” value (HeLa cells; [3]) was 118% and the “% cells in cell cycle phase: S” value (HeLa cells; [3]) was 153%. The “% cells in cell cycle phase: aneuploid” value (HeLa cells; [3]) was 136% and the “% cells in cell cycle phase: subG1” value (HeLa cells; [3]) was 589%.

In the case of “GCTGACCTTTTTGCTTCTCA (sugars from the 5' end e5 d10 e5, all phosphorothioate, methylation of C not given here) [ISIS 138648, 5-10-5 2′-MOE gapmer PS targeting the human Dicer mRNA]”, the “increase in caspase activity” value (T47D cells; T47D cells) was 41% and the triglyceride accumulation (adipocytes) was “decreased triglyceride production”.

For “328421 (antisense eG*e[5mC]*eT*eT*eA*dG*d[5mC]*dT*dG*dT*dG*dT*d[5mC]*dT*dT*eA*e[5mC]*eA*eG*e[5mC]) [compound 328421]”, the “Fold Increase over UTC (caspase activity)” value (T47D cells; T47D cells) was 1.2, the “% cells aneuploid” value (HeLa cells; [2]) was 70% and the “% cells in cell cycle phase G1” value (HeLa cells; [2]) was 47%. For the same substance, the “% cells in cell cycle phase G2/M” value (HeLa cells; [2]) was 200%, the “% cells in cell cycle phase S” value (HeLa cells; [2]) was 105% and the “% cells in cell cycle phase subG1” value (HeLa cells; [2]) was 288%. The “% cells in cell cycle phase: G1” value (HeLa cells; [3]) was 30%, the “% cells in cell cycle phase: G2/M” value (HeLa cells; [3]) was 198% and the “% cells in cell cycle phase: S” value (HeLa cells; [3]) was 202%. The “% cells in cell cycle phase: aneuploid” value (HeLa cells; [3]) was 64% and the “% cells in cell cycle phase: subG1” value (HeLa cells; [3]) was 1103%.

With “ISIS 328421: 5-10-5 2′-MOE gapmer PS; targets mir-30d pri-miRNA (eG*e[5mC]*eT*eT*eA*dG*d[5mC]*dT*dG*dT*dG*dT*d[5mC]*dT*dT*eA*e[5mC]*eA*eG*e[5mC])” the “apoptosis in T47D cells” value (T47D cells) was “induce apoptosis”, the “phase of the cell cycle in which cells arrest or delay” value (HeLa cells; 150 nM, 24 hours) was “G2/M-phase” and the “phase of the cell cycle in which cells arrest or delay” value (HeLa cells; 150 nM, 48 hours) was “S- and G2/M-phases”.

With “328383 (eA*eG*eA*eG*eG*dG*dG*dA*dG*dA*d[5mC]*dG*dA*dG*dA*eG*e[5mC]*eA*e[5mC]*eT) [compound 328383]” the “Fold Increase over UTC (caspase-3 activity, apoptosis)” value (T47D cells; T47D cells, experiment of Table 10) was 1.2 fold, the “% cells in cell cycle phase: G2/M” value (HeLa cells; 25 nM, 48 hours) was 18% and the “% cells in cell cycle phase: G1” value (HeLa cells; [4]) was 57%. For the same substance, the “% cells in cell cycle phase: S” value (HeLa cells; [4]) was 25%, the “% cells in cell cycle phase: aneuploid” value (HeLa cells; [4]) was 12% and the “% cells in cell cycle phase: subG1” value (HeLa cells; [4]) was 1.9%. The “% cells in cell cycle phase: G2/M” value (HeLa cells; 50 nM, 48 hours) was 18%, the “% cells in cell cycle phase: G1” value (HeLa cells; [5]) was 56% and the “% cells in cell cycle phase: S” value (HeLa cells; [5]) was 25%. The “% cells in cell cycle phase: aneuploid” value (HeLa cells; [5]) was 13%, the “% cells in cell cycle phase: subG1” value (HeLa cells; [5]) was 1.3% and the “% cells in cell cycle phase: G2/M” value (HeLa cells; 100 nM, 48 hours) was 30%. For the same substance, the “% cells in cell cycle phase: G1” value (HeLa cells; [6]) was 36%, the “% cells in cell cycle phase: S” value (HeLa cells; [6]) was 34% and the “% cells in cell cycle phase: aneuploid” value (HeLa cells; [6]) was 10%. The “% cells in cell cycle phase: subG1” value (HeLa cells; [6]) was 9.3%, the “% cells aneuploid” value (HeLa cells; [2]) was 92% and 98% and the “% cells in cell cycle phase G1” value (HeLa cells; [2]) was 55% and 63%. The “% cells in cell cycle phase G2/M” value (HeLa cells; [2]) was 222% and 183%, the “% cells in cell cycle phase S” value (HeLa cells; [2]) was 82% and 97% and the “% cells in cell cycle phase subG1” value (HeLa cells; [2]) was 314% and 289%. The “% cells in cell cycle phase: G1” value (HeLa cells; [3]) was 53% and 54%, the “% cells in cell cycle phase: G2/M” value (HeLa cells; [3]) was 124% and 150% and the “% cells in cell cycle phase: S” value (HeLa cells; [3]) was 217% and 178%. The “% cells in cell cycle phase: aneuploid” value (HeLa cells; [3]) was 90%, the “% cells in cell cycle phase: G2/M” value (HeLa cells; 150 nM, 48 hours) was 34% and the “% cells in cell cycle phase: G1” value (HeLa cells; [7]) was 29%. The “% cells in cell cycle phase: S” value (HeLa cells; [7]) was 36%, the “% cells in cell cycle phase: aneuploid” value (HeLa cells; [7]) was 11% and the “% cells in cell cycle phase: subG1” value (HeLa cells; [7]) was 11.8%.

For “AGCCAGTGTGTAAAATGAGA (2'-MOE gapmer, phosphorothioate, further chemistry not given here) [ISIS 328700]”, the “apoptosis in T47D cells” value (T47D cells) was “prevent or have a protective effect from apoptosis”.

In the case of “328376 (eT*e[5mC]*eA*e[5mC]*eA*dA*dT*d[5mC]*d[5mC]*d[5mC]*d[5mC]*dA*d[5mC]*d[5mC]*dA*eA*eA*e[5mC]*eT*e[5mC]; antisense) [compound 328376]”, the “Fold Increase over UTC (caspase-3 activity, apoptosis)” value (T47D cells; [1]) was 0.7 fold.

With “SEQ ID NO 483: gapmer of Tables 9-12 having this SEQ ID NO (antisense eA*eG*e[5mC]*eT*eT*dT*dA*dG*d[5mC]*dT*dG*dG*dG*dT*d[5mC]*eA*eG*eG*eA*e[5mC])” the “apoptosis in T47D cells” value (T47D cells) was “induce apoptosis”.

“328641 (eT*eG*e[5mC]*eT*eG*dA*d[5mC]*dT*dG*d[5mC]*dT*d[5mC]*dG*d[5mC]*d[5mC]*e[5mC]*eT*eT*eG*e[5mC]; antisense) [compound 328641]” was tested, and the “Fold Increase over UTC (caspase-3 activity, apoptosis)” value (T47D cells; T47D cells, experiment of Table 12) was 1.1 fold.

With “ISIS 328381: 5-10-5 2′-MOE gapmer PS; targets mir-214 pri-miRNA (eA*e[5mC]*eA*eG*eG*dT*dG*dA*dG*d[5mC]*dG*dG*dA*dT*dG*eT*eT*e[5mC]*eT*eG)” the “apoptosis in T47D cells” value (T47D cells) was “induce apoptosis”.

In the case of “SEQ ID NO 521: gapmer of Tables 9-12 having this SEQ ID NO (antisense eT*eT*eT*eA*e[5mC]*dT*d[5mC]*dA*dT*dA*d[5mC]*d[5mC]*dT*d[5mC]*dG*e[5mC]*eA*eA*e[5mC]*e[5mC])”, the “apoptosis in T47D cells” value (T47D cells) was “induce apoptosis”.

“328411 (antisense eT*eA*e[5mC]*e[5mC]*eT*d[5mC]*dT*dG*d[5mC]*dA*dG*dT*dA*dT*dT*e[5mC]*eT*eA*e[5mC]*eA) [compound 328411]” was tested, and the “Fold Increase over UTC (caspase-3 activity, apoptosis)” value (T47D cells; [1]) was 0.8 fold.

“SEQ ID NO 536: gapmer of Tables 9-12 having this SEQ ID NO (eG*eA*eT*eG*eT*d[5mC]*dA*d[5mC]*dT*dG*dA*dG*dG*dA*dA*eA*eT*e[5mC]*eA*e[5mC])” was tested, and the “apoptosis in T47D cells” value (T47D cells) was “prevent or have a protective effect from apoptosis”.

With “SEQ ID NO 511: gapmer of Tables 9-12 having this SEQ ID NO (antisense eT*eT*eG*eA*eA*d[5mC]*dT*d[5mC]*d[5mC]*dA*dT*dG*d[5mC]*d[5mC]*dA*e[5mC]*eA*eA*eG*eG)” the “apoptosis in T47D cells” value (T47D cells) was “induce apoptosis”.
